Assay results published in patent publication US20150024008A1, “Methods and Compositions Involving Induced Senescent Cells for Cancer Treatment” (THE UNIVERSITY OF CHICAGO, priority 2011, published 2015).

Legend:
[1] = test system: 22Rv1 (human) prostate carcinoma cells; test: Flow cytometric detection of SA-βGal with DDAO-G; type: cell-based
Method: Prostate carcinoma (PCa) cell lines included 22Rv1 (human) and TRAMP-C2 (murine, ATCC). PCa cell lines were propagated in complete culture medium using sterile culture flasks in a humidified, 5% CO2 incubator at 37° C. For 22Rv1 human PCa cells, complete media consisted of RPMI-1640 1× (modified without L-glutamine, Invitrogen) supplemented with fetal bovine serum (FBS, 10%, Gemini Biosciences), stabilized L-glutamine (2 mM, Gemini Biosciences), and penicillin-streptomycin solution (100 U/ml penicillin, 100 μg/ml streptomycin, Invitrogen). For TRAMP-C2 murine PCa cells, complete medium consisted of DMEM (modified with 4.5 g/l glucose and without L-glutamine, Invitrogen) supplemented with FBS (5%), Nu-Serum IV (5%, BD Biosciences), stabilized L-glutamine (4 mM), dehydroisoandrosterone (10 nM, Sigma-Aldrich), bovine insulin (5 μg/ml, Sigma-Aldrich), and penicillin-streptomycin solution (100 U/ml penicillin, 100 μg/ml streptomycin).
Cells were plated at low density (˜25×10^3 cells/cm^2) and incubated overnight to allow adherence to culture surfaces. The following day, PARP inhibitor veliparib (ABT-888, 10 μM in DMSO, ChemieTek) was added (or not) to freshly changed media to enhance uptake of the compound. Cells were incubated with veliparib for 60 minutes at 37° C. in 5% CO2 prior to gamma irradiation (IR, 6 Gy). Treated and untreated cells were then incubated undisturbed for 5 days to allow senescence to proceed.
Cells were pelleted by centrifugation for 5 minutes at 1000×g, supernatant removed, and pellet resuspended in 1% bovine serum albumin (BSA, United States Biological) in DPBS. Cell suspensions were counted (cells/mL) using a handheld counting device (Scepter, Millipore). […]
Analysis of SA-βGal signal was conducted by flow cytometry, using an LSRII cytometer (Becton Dickinson) equipped with a 633 nm red diode laser and a 670/30 (APC) bandpass filter suitable for DDAO red fluorescent signal excitation and emission detection. […] Single, whole cells were then visualized on a red-fluorescence vs SSC-A plot in order to define senescent SA-βGal^+ SSC^high cells. […]

[2] = test system: B16SIY murine melanoma cells; test: DNA damage foci (γH2AX, 53BP1) and SA-βGal senescence in B16SIY cells in vitro; type: cell-based, mouse; details: with IR
Method: (§1) Slides were deparaffinized in xylene and hydrated with alcohol before being placed in 0.3% H2O2/methanol blocking solution to quench endogenous peroxidase activity followed by subsequent antigen unmasking in EDTA buffer. […] Reactions were developed with 3,3′-diaminobenzidine chromogen or Vulcan Red, respectively, and counterstained with hematoxylin. Negative controls were obtained by using isotype-matched primary antibody IgG. The SA-βGal assay was performed using the Senescence Beta-galactosidase Staining Kit (Cell Signaling) (Dunn 2006). All images were captured using Zeiss Axiovert 200M and Zeiss Axiocam color digital camera controlled by OpenLab software with a 20× objective. All primers sequence and running protocols for RT-PCR can be found in reference Table 2 (Lugade 2008, Zhang 2008).
B16SIY cells were maintained in a full medium supplemented with 10% FCS. The cells were pretreated with 10 μm veliparib then exposed to 6 or 12 Gy x-ray or IR alone (Gammacell 1000; MDS Nordion, Kanata, Ontario, Canada), then cocultured with immature BM-DC in a transwell system. 3 days later BM-DC were collected and analyzed by FACS for cell surface maturation marker and intracellular cytokines. These BM-DC were used to stimulate sorted CD4+ cells (Lugade 2008, Zhang 2008).

[3] = test system: breast, prostate, melanoma and head and neck squamous cell cancer cell lines; test: Radiation induced senescence in different human cancer cell lines; type: cell-based; details: combined with radiation
[4] = test system: TUBO murine mammary tumor cells; test: Senescence, SASP expression and ATP release of TUBO cells in low or high glucose media; type: cell-based, mouse
Method: as §1

[5] = test system: bone marrow dendritic cells (CD11c); test: Coculture of DCs with senescent TRAMP-C2 cells, immunostimulation assay; details: CD45 positive cells
Method: Briefly 2×10^6 of collected BM cells were resuspended in 10 ml of complete medium (CM) (RPMI, 10% FBS, pen/strep, HEPES) +20 ng/ml mouse granulocyte-macrophage colony-stimulating factor (GM-CSF). BM were transferred to uncoated plastic Petri dish. On a third day 10 ml of fresh CM+20 ng/ml GM-CSF were added. Immature dendritic cells (DC) were harvested on day 5, were suspended at 5×10^6 cells/ml in ice-cold freezing medium (CM+10 ng/ml GM-CSF+10% DMSO) and frozen for future experiments.
Assayed cells (TRAMP-C2) were plated 2.5×10^5 p100 plates and next day irradiated (6Gy) and 25 μM veliparib to obtained senescent phenotype. For TRAMP-C2 the coculture was started 6 days after cell irradiation and veliparib treatment. DCs were thawed and plated in CM+10 ng/ml GM-CSF 24 hours before they were cocultured with senescent TRAMP-C2 cells. In a day when co-culture started DCs were detached with trypsin and washed twice with phosphate buffered saline (PBS) to remove GM-CSF. Senescent TRAMP-C2 cells culture was washed with PBS and medium also changed to remove veliparib. Washed DCs and senescent cells were cocultured in fresh medium for 2-3 days.
After coculture medium was collected to harvest non-adherent cells fraction. […]
As CD45 is marker of immune cells, only CD45 positive cells were analyzed and TRAMP-C2 cells could be excluded from analysis as CD45 negative.

[6] = veliparib+IR cells, FSC vs. SSC

SMILES: C[C@]1(c2nc3c(C(N)=O)cccc3[nH]2)CCCN1 [veliparib, (R)-2-(2-methylpyrrolidin-2-yl)-1H-benzo[d]imidazole-4-carboxamide]
- B-Gal high cells within the region shown by the black rectangle [1, 6]: 41%
- B-Gal- or B-Gal low cells within the region shown by the black rectangle [1, 6]: 59%
- cells in senescent gate (B-Gal vs. SSC) ([1]; veliparib+IR treated viable cells): 20%
- DNA damage foci resolution (γH2AX, p53BP1) ([2]; 24 h): delayed DNA damage foci resolution
- accelerated senescence (cell morphology, SA-βGal) ([2]; day 7): induced accelerated senescence
- radiation induced senescence [3]: enhances radiation induced senescence
- cell survival ([4]; IR and veliparib+IR, low glucose medium): more cells survived
- senescent cell morphology and SA-βGal expression ([4]; veliparib and 12 Gy, data not shown): fail to display either the characteristic cell morphology or SA-βGal expression
- IFNβ and CCL5 expression kinetics ([4]; veliparib+IR, high glucose media): only showed low level IFNβ and CCL5 at day 7
- SA-βGal staining ([4]; veliparib+IR, low glucose media vs high glucose): More TUBO cells displayed enhanced senescence-associated β-galactosidase staining
- extracellular ATP release ([4]; veliparib+IR, low glucose media, higher density): higher ATP was detected
- IFNβ and CXCL11 expression kinetics ([4]; veliparib+IR, low glucose medium): started at day 5 through day 10
- cell apoptosis ([4]; veliparib+IR, low vs high glucose medium): no increased cell apoptosis
- population of CD11c positive cells ([5]; TRAMP-C2 treated with 0 Gy+25 μM veliparib): 5.2%
- population of CD11c positive cells ([5]; TRAMP-C2 treated with IR (6Gy)+25 μM veliparib): 36.7%
